In test [1] the target is T1, Human PD-L1/PD-1 (Homo sapiens, UniProt Q9NZQ7).
T1 construct: made in house; host or cells: HEK293T
The test can be described thus: HTRF PD-1-Ig/PD-L1-His binding assay (human PD-L1). As to conditions: cluster symbol; read-out: HTRF IC50 cluster. The gist of the method: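 Steps: truncated PD-1-Ig and PD-L1-His fusions are incubated in dPBS containing 0.1% (w/v) BSA and 0.05% (v/v) Tween-20. Detection antibodies are then added (Eu cryptate anti-Ig at 1 nM final, APC anti-His at 20 nM final), and time-resolved FRET is measured.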
(In TR-FRET formats the signal depends on donor and acceptor labels being close together.)

In test [2] the target is T2, LK35.2-hPD-L1 cells / PE-labeled PD-1-Ig (Homo sapiens, UniProt Q9NZQ7).
T2 construct: expressed in transfected cells; host or cells: LK35.2 mouse B cell line
T2 sequence (Q9NZQ7 19-290): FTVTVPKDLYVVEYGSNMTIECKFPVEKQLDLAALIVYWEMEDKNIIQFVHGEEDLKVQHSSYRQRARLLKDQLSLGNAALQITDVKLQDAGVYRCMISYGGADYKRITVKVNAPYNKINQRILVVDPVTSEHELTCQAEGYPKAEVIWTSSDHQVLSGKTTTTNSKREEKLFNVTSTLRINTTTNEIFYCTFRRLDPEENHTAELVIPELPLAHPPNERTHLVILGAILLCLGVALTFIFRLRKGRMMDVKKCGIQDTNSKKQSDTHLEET
The test can be described thus: LK35.2-hPD-L1 cell binding high-content screening assay. The class given is cell-based. Conditions: cluster symbol, read-out: CBA IC50 cluster. The gist of the method: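 Fluorescent PD-1-Ig binding to PD-L1-expressing LK35.2 cells, imaged after washing. Conditions: 1 nM PE-PD-1-Ig, 37 °C, 1 h, RPMI with 10% fetal calf serum.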

The mark [3] stands for this setting: cell binding assay, cell line not given.
The mark [4] stands for this setting: cell line of CBA not given (LK35.2-hPD-L1 or 293T-hPD-L1).

The values below come from patent US9850283B2, “Macrocyclic inhibitors of the PD-1/PD-L1 and CD80(B7-1)/PD-L1 protein/protein interactions” (BRISTOL-MYERS SQUIBB COMPANY, priority 2013, dated 2017).

The structures appear in SMILES notation. Where two headings read alike, the source gives them in different places. Positions of bridges follow the written chain, without caps; N, C: chain ends. Non-standard residues stand in square brackets, D forms with d. Residues, ends and D or L forms follow the SMILES beside them. ξ: configuration not given here. Phe(3,4,5-F3) = N[C@@H](Cc1cc(F)c(F)c(F)c1)C(=O)O; Phe(3-CF3) = N[C@@H](Cc1cccc(C(F)(F)F)c1)C(=O)O; Pro(4R-Bn) = O=C(O)[C@@H]1C[C@@H](Cc2ccccc2)CN1; Phe(3,5-F2) = N[C@@H](Cc1cc(F)cc(F)c1)C(=O)O; Bta = N[C@@H](Cc1csc2ccccc12)C(=O)O; Hyp = O=C(O)[C@@H]1C[C@@H](O)CN1; NMeF = CN[C@@H](Cc1ccccc1)C(=O)O; dNMeNle = CCCC[C@@H](NC)C(=O)O; NMeNle = CCCC[C@H](NC)C(=O)O; NMeA = CN[C@@H](C)C(=O)O; Orn = NCCC[C@H](N)C(=O)O; Dab = NCC[C@H](N)C(=O)O; Dap = NC[C@H](N)C(=O)O; ξP = O=C(O)C1CCCN1; ξC = NC(CS)C(=O)O; Sar = CNCC(=O)O

T1 sequence (Q9NZQ7 with tags, fused parts or gaps): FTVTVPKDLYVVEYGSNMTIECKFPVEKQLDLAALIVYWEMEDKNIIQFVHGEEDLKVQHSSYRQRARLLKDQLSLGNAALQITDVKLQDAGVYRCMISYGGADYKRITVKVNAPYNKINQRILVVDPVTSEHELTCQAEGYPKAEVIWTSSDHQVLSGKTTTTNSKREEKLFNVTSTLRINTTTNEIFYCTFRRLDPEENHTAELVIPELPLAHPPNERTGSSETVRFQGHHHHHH

For the compound `CCCC[C@H]1C(=O)N(C)[C@@H](CCCC)C(=O)N[C@@H](C)C(=O)N[C@H](C(=O)NCC(N)=O)CSCC(=O)N[C@@H](Cc2ccc(O)cc2)C(=O)N(C)[C@@H](C)C(=O)N[C@@H](CC(=O)O)C(=O)N2CCC[C@H]2C(=O)N[C@@H](Cc2c[nH]cn2)C(=O)N[C@@H](CCC(=O)O)C(=O)N2C[C@H](Cc3ccccc3)C[C@H]2C(=O)N[C@@H](Cc2c[nH]c3ccccc23)C(=O)N[C@@H](CCN)C(=O)N[C@@H](Cc2c[nH]c3ccccc23)C(=O)N1C` [Example 13008] ({CH2CO}-Y[NMeA]DPHE[Pro(4R-Bn)]W[Dab]W[NMeNle][NMeNle]ACG-NH2; thioether N-14), the values for the half-inhibitory concentration (IC50) in test [1] and in test [2] (setting [3]) were 0.385 to 6.74 nM and 0.158 to 4.71 nM, respectively.

For `CCCC[C@H]1C(=O)N(C)[C@@H](Cc2ccccc2)C(=O)N[C@@H](CN)C(=O)N[C@H](C(=O)NCC(N)=O)CSCC(=O)N[C@@H](Cc2ccc(O)cc2)C(=O)N(C)[C@@H](C)C(=O)N[C@@H](CC(N)=O)C(=O)N2CCC[C@H]2C(=O)N[C@@H](Cc2c[nH]cn2)C(=O)N[C@@H](CCC(=O)O)C(=O)N2C[C@H](O)C[C@H]2C(=O)N[C@@H](Cc2c[nH]c3ccccc23)C(=O)N[C@@H](CCN)C(=O)N[C@@H](Cc2c[nH]c3ccccc23)C(=O)N1C` [Example 5147] ({CH2CO}-Y[NMeA]NPHE[Hyp]W[Dab]W[NMeNle][NMeF][Dap]CG-NH2; thioether N-14), the values for the IC50 in test [1] and in test [2] (setting [3]) were 0.385 to 6.74 nM and 4.78 to 72.9 nM, respectively.

Regarding `CCCC[C@@H]1C(=O)N(C)[C@H](CCCC)C(=O)N[C@@H](CCCN)C(=O)N[C@@H](C(=O)NCC(N)=O)CSCC(=O)N[C@@H](Cc2ccc(O)cc2)C(=O)N2CCCC2C(=O)N[C@H](CC(=O)O)C(=O)N2CCC[C@H]2C(=O)N[C@H](Cc2c[nH]cn2)C(=O)N[C@@H](CCC(=O)O)C(=O)N2CCCC2C(=O)N[C@H](Cc2c[nH]c3ccccc23)C(=O)N[C@@H](CCN)C(=O)N[C@@H](Cc2c[nH]c3ccccc23)C(=O)N1C` (some centres unmarked) [Example 1216] ({CH2CO}-Y[ξP][dD]P[dH]E[ξP][dW][Dab]W[dNMeNle][dNMeNle][Orn][dC]G-NH2; thioether N-14), the figures for the IC50 in test [1] and in test [2] (setting [4]) were 6.76 to 30.3 nM and more than 74.3 nM, respectively.

Regarding `CCCC[C@H]1C(=O)N(C)CC(=O)N[C@@H](CC(N)=O)C(=O)N[C@@H](C(C)C)C(=O)N(C)[C@@H](Cc2ccccc2)C(=O)N[C@@H](Cc2ccc(O)cc2)C(=O)N(C)CC(=O)N[C@@H](Cc2c[nH]c3ccccc23)C(=O)N[C@@H](Cc2ccc(O)cc2)C(=O)N[C@@H](CCCN)C(=O)N[C@H](C(=O)NCC(N)=O)CSCC(=O)N[C@@H](Cc2cc(F)c(F)c(F)c2)C(=O)N(C)[C@@H](Cc2ccccc2)C(=O)N1C` [Example 3181] ({CH2CO}-[Phe(3,4,5-F3)][NMeF][NMeNle][Sar]NV[NMeF]Y[Sar]WY[Orn]CG-NH2; thioether N-13), the IC50 fell in the range of 0.385 to 6.74 nM in test [1] and 0.158 to 4.71 nM in test [2] (setting [4]).

In the case of `CCCC[C@H]1C(=O)N(C)[C@@H](CCCC)C(=O)N[C@@H](CCC(=O)O)C(=O)N[C@H](C(=O)NCC(N)=O)CSCC(=O)N[C@@H](Cc2ccc(O)cc2)C(=O)N(C)[C@@H](C)C(=O)N[C@@H](CC(N)=O)C(=O)N2CCC[C@H]2C(=O)N[C@@H](Cc2c[nH]cn2)C(=O)N[C@@H](CCC(N)=O)C(=O)N2C[C@H](O)C[C@H]2C(=O)N[C@@H](Cc2c[nH]c3ccccc23)C(=O)N[C@@H](CCCCN)C(=O)N[C@@H](Cc2c[nH]c3ccccc23)C(=O)N1C` [Example 5106] ({CH2CO}-Y[NMeA]NPHQ[Hyp]WKW[NMeNle][NMeNle]ECG-NH2; thioether N-14), the IC50 in test [1] lay in the range of 0.385 to 6.74 nM; in test [2] (setting [3]), 0.158 to 4.71 nM.

As to `CCCC[C@H]1C(=O)N(C)[C@@H](CCCC)C(=O)N[C@@H](CCCNC(=N)N)C(=O)N[C@H](C(=O)NCC(N)=O)CSCC(=O)N[C@@H](Cc2ccc(O)cc2)C(=O)N(C)[C@@H](C)C(=O)N[C@@H](CC(N)=O)C(=O)N2CCC[C@H]2C(=O)N[C@@H](CN)C(=O)N[C@@H](CC(N)=O)C(=O)N2C[C@H](O)C[C@H]2C(=O)N[C@@H](Cc2c[nH]c3ccccc23)C(=O)N[C@@H](CO)C(=O)N[C@@H](Cc2csc3ccccc23)C(=O)N1C` [Example 6028] ({CH2CO}-Y[NMeA]NP[Dap]N[Hyp]WS[Bta][NMeNle][NMeNle]RCG-NH2; thioether N-14), the half-inhibitory concentration (IC50) lay in the range of 6.76 to 30.3 nM in test [1] and 0.158 to 4.71 nM in test [2] (setting [3]).

With `CCCC[C@H]1C(=O)N(C)[C@@H](CCCC)C(=O)N[C@@H](CN)C(=O)N[C@H](C(=O)NCC(N)=O)CSCC(=O)N[C@@H](Cc2ccc(O)cc2)C(=O)N(C)[C@@H](C)C(=O)N[C@@H](CC(=O)O)C(=O)N2CCC[C@H]2C(=O)N[C@@H](CN)C(=O)N[C@@H](CCC(N)=O)C(=O)N2C[C@H](O)C[C@H]2C(=O)N[C@@H](Cc2c[nH]c3ccccc23)C(=O)N[C@@H](CCN)C(=O)N[C@@H](Cc2csc3ccccc23)C(=O)N1C` [Example 1223] ({CH2CO}-Y[NMeA]DP[Dap]Q[Hyp]W[Dab][Bta][NMeNle][NMeNle][Dap]CG-NH2; thioether N-14), the IC50 in test [1] lay in the range of 0.385 to 6.74 nM; in test [2] (setting [4]), 0.158 to 4.71 nM.

For `CCCC[C@H]1C(=O)N(C)[C@@H](CCCC)C(=O)N[C@@H](C)C(=O)N[C@H](C(=O)NCC(N)=O)CSCC(=O)N[C@@H](Cc2ccc(O)cc2)C(=O)N(C)[C@@H](C)C(=O)N[C@@H](CCCN)C(=O)N2CCC[C@H]2C(=O)N[C@@H](Cc2cnc[nH]2)C(=O)N[C@@H](CCC(=O)O)C(=O)N2C[C@H](O)C[C@H]2C(=O)N[C@@H](Cc2c[nH]c3ccccc23)C(=O)N[C@@H](CO)C(=O)N[C@@H](Cc2c[nH]c3ccccc23)C(=O)N1C` [Example 1179] ({CH2CO}-Y[NMeA][Orn]PHE[Hyp]WSW[NMeNle][NMeNle]ACG-NH2; thioether N-14), the IC50 in test [1] lay in the range of 0.385 to 6.74 nM; in test [2] (setting [4]) it was 4.78 to 72.9 nM.

With `CCCC[C@H]1C(=O)N(C)CC(=O)N[C@@H](CC(=O)O)C(=O)N[C@@H](C(C)C)C(=O)N(C)[C@@H](Cc2ccccc2)C(=O)N[C@@H](Cc2ccc(O)cc2)C(=O)N(C)CC(=O)N[C@@H](Cc2c[nH]c3ccccc23)C(=O)N[C@@H](Cc2ccc(O)cc2)C(=O)N[C@@H](CC(C)C)C(=O)N[C@H](C(=O)NCC(N)=O)CSCC(=O)N[C@@H](Cc2cc(F)cc(F)c2)C(=O)N(C)[C@@H](Cc2ccccc2)C(=O)N1C` [Example 3143] ({CH2CO}-[Phe(3,5-F2)][NMeF][NMeNle][Sar]DV[NMeF]Y[Sar]WYLCG-NH2; thioether N-13), the IC50 in test [1] was 6.76 to 30.3 nM; in test [2] (setting [4]) it was 0.158 to 4.71 nM.

`CCCC[C@H]1C(=O)N(C)CC(=O)N[C@@H](CC(=O)O)C(=O)N[C@@H](C(C)C)C(=O)N(C)[C@@H](Cc2ccccc2)C(=O)N[C@@H](Cc2ccc(O)cc2)C(=O)N(C)CC(=O)N[C@@H](Cc2c[nH]c3ccccc23)C(=O)N[C@@H](Cc2ccc(O)cc2)C(=O)N[C@@H](Cc2ccccc2)C(=O)N[C@H](C(=O)NCC(N)=O)CSCC(=O)N[C@@H](Cc2ccccc2)C(=O)N(C)[C@@H](Cc2ccccc2)C(=O)N1C` [Example 3537] (HELM PEPTIDE1{[O=C(C[*:3])[*:2]].F.[meF].[CCCC[C@@H](C(=O)[*:2])N(C)[*:1]].[Sar].D.V.[meF].Y.[Sar].W.Y.F.C.G.[am]}$PEPTIDE1,PEPTIDE1,1:R3-14:R3$$$V2.0): the IC50 in test [1] is 6.76 to 30.3 nM; in test [2] (setting [3]), 4.78 to 72.9 nM.

In the case of `CCCC[C@H]1C(=O)N(C)[C@@H](CCCC)C(=O)N[C@@H](CCCNC(=N)N)C(=O)NC(C(=O)N[C@@H](CO)C(N)=O)CSCC(=O)N[C@@H](Cc2ccc(O)cc2)C(=O)N(C)[C@@H](C)C(=O)N[C@@H](CC(N)=O)C(=O)N2CCC[C@H]2C(=O)N[C@@H](Cc2cnc[nH]2)C(=O)N[C@@H](CC(C)C)C(=O)N2CCC[C@H]2C(=O)N[C@@H](Cc2c[nH]c3ccccc23)C(=O)N[C@@H](CO)C(=O)N[C@@H](Cc2c[nH]c3ccccc23)C(=O)N1C` (some centres unmarked) [Example 9037] ({CH2CO}-Y[NMeA]NPHLPWSW[NMeNle][NMeNle]R[ξC]S-NH2; thioether N-14), the IC50 was in the range of 6.76 to 30.3 nM in test [1] and 0.158 to 4.71 nM in test [2] (setting [3]).

As for `CCCC[C@H]1C(=O)N(C)[C@@H](CCCC)C(=O)N[C@@H](CCCNC(=N)N)C(=O)N[C@H](C(=O)NCC(N)=O)CSCC(=O)N[C@@H](Cc2ccccc2)C(=O)N(C)[C@@H](C)C(=O)N[C@@H](CC(N)=O)C(=O)N2CCC[C@H]2C(=O)N[C@@H](Cc2cnc[nH]2)C(=O)N[C@@H](CC(C)C)C(=O)N(C)CC(=O)N[C@@H](Cc2cccc(C(F)(F)F)c2)C(=O)N[C@@H](CO)C(=O)N[C@@H](Cc2c[nH]c3ccccc23)C(=O)N1C` [Example 1018] ({CH2CO}-F[NMeA]NPHL[Sar][Phe(3-CF3)]SW[NMeNle][NMeNle]RCG-NH2; thioether N-14), the IC50 was more than 30.5 nM in test [1] and more than 74.3 nM in test [2] (setting [4]).

For the compound `CCCC[C@H]1C(=O)N(C)[C@@H](CCCC)C(=O)N[C@@H](CN)C(=O)N[C@H](C(=O)NCC(N)=O)CSCC(=O)N[C@@H](Cc2ccc(O)cc2)C(=O)N(C)[C@@H](C)C(=O)N[C@@H](CC(N)=O)C(=O)N2CCC[C@H]2C(=O)N[C@@H](CN)C(=O)N[C@@H](CC(=O)O)C(=O)N2C[C@H](O)C[C@H]2C(=O)N[C@@H](Cc2c[nH]c3ccccc23)C(=O)N[C@@H](CCN)C(=O)N[C@@H](Cc2csc3ccccc23)C(=O)N1C` [Example 1226] ({CH2CO}-Y[NMeA]NP[Dap]D[Hyp]W[Dab][Bta][NMeNle][NMeNle][Dap]CG-NH2; thioether N-14), the results for the IC50 in test [1] and in test [2] (setting [4]) were 0.385 to 6.74 nM and 0.158 to 4.71 nM, respectively.

By IC50 is commonly meant the concentration that gives 50% inhibition.
